Article PMC7278776, “Multidrug Resistance Modulation Activity of Silybin Derivatives and Their Anti-Inflammatory Potential” (Antioxidants, 2020)
Like-named read-outs stand apart in the source and are kept apart here. Marks after values point to notes of the source that are not given here.

Legend:
HepG2 cells = experiment: CAA (cellular antioxidant activity) assay; format: cell-based; settings: Homo sapiens
Method: For the CAA assay, human hepatocellular carcinoma HepG2 cells (ATCC, Manassas, VA, USA) were seeded into a 96-well microplate at a density of 1 × 10^5 cells/well in EMEM medium supplemented with 10% of FBS, 2 mM L-glutamine and 1 × antibiotic antimycotic solution. The cells were maintained in a CO2 incubator (5% CO2, 37 °C, Memmert GmbH & Co, Büchenbach, Germany). The following day, the plates were washed with PBS and new fresh DMEM was added into each well supplemented with tested samples in the concentration range of 6.25–100 µM and fluorescent probe DCFH-DA (12.5 mg/L). After 1 h of incubation at 37 °C, the medium was replaced with AAPH solution (0.16 mg/mL in PBS), except for the negative control, where PBS was added instead. Directly, the fluorescence was recorded for 2 h in 5 min steps at 485/540 nm excitation/emission (ex./em.).

[1] = system: nitric oxide (NO) production by LPS-stimulated macrophages (RAW 264.7); experiment: NO production by LPS-stimulated macrophages (Griess); format: cell-based, mouse; settings: for IC50: Mus musculus, read-out: NO Production, concentration necessary to halve NO production (IC50)
Method: Immunomodulatory effect of tested compounds was determined as their ability to decrease nitric oxide (NO) production by LPS-stimulated macrophages (RAW 264.7, Sigma-Aldrich). Briefly, the cells were seeded into the 96-well plate at a density of 1 × 10^6 cells/mL in DMEM medium (supplemented with 2 mM L-glutamine and 1 × antibiotic antimycotic solution). After 48 h, the cells were washed with PBS. The MEM medium enriched with LPS (1 µg/mL) was added to the wells, together with the samples in the concentration range of 6.25–100 µM at a final volume of 100 µL. Indomethacin, a non-steroidal anti-inflammatory drug, was tested as a positive control in the concentration range 6.25–100 µM. After 24 h, the medium was used for the quantification of NO and inflammatory cytokines.
After 15 min, absorbance was recorded at 540 nm.

TNF-α = TNF-α release by LPS-induced macrophages (ELISA); format: cell-based, mouse; settings: for IC50: Mus musculus
Method: To determine the level of inflammatory cytokine TNF-α, macrophages were pre-cultivated with the tested compounds (12.5–50 µM) for 24 h. Thereafter, the plates were washed with PBS and new MEM medium enriched with LPS (1 µg/mL) was added to the wells. After 2 h of incubation, the plates were centrifuged (1000× g; 10 min, 4 °C) and then the medium was removed and frozen to −80 °C. Prior to the detection, the samples were diluted in ELISA diluent in a 1:10 ratio. […]

ABCA2 = ABCA2 mRNA expression (real-time PCR); format: cell-based, human; settings: A2780/DOX, 10 µM combined with doxorubicin at IC25, 48 h
Method: (§1) The A2780/DOX cell line was seeded into 5 cm Petri dishes with DMEM medium at 1 × 10^5 cell/mL. After 24 h, the dishes were washed with PBS and new DMEM medium supplemented with doxorubicin (at concentration equal to IC25) and samples (10 µM) were added. After 48 h of treatment, the cells were washed with PBS and harvested using the standard trypsin-EDTA procedure. The harvested cells were centrifuged (3200× g; 10 min, 4 °C). The supernatant was discarded, and the pellets were washed with 1.5 mL of cooled PBS (5400× g; 10 min, 4 °C). The washing step was repeated with 1 mL of PBS and the cells were centrifuged again (10,000× g; 3 min, 4 °C). Afterwards, the pellets were resuspended in 1 mL of Trizol (Invitrogen, Carlsbad, CA, USA) and transferred into pre-cooled RNase-free microfuge tubes. The samples were stored at −80 °C.
(§2) A Quant-iT RiboGreen RNA Assay Kit (Invitrogen) was used to determine the RNA concentration using the Infinite M200 plate reader (Tecan, Männedor, Switzerland). The cDNA was prepared from 0.5 µg of total RNA using a RevertAid First Strand Synthesis cDNA Kit (MBI Fermentas, Vilnius, Lithuania). The amplification of the ubiquitin C gene fragment was used to determine the quality of cDNA.
(§3) The experiment was performed using the ViiA7 Real-Time polymerase chain reaction (PCR) System (Life Technologies, Camarillo, CA, USA) with a 384-well block. Before quantitative real-time PCR, the master mix was prepared by mixing 2 µL of 8 × diluted cDNA, 1.75 µL of RNase free water, 1 µL of 5 × HotFIREPol Probe quantitative PCR Mix Plus (Solis Biodyne, Tartu, Estonia) and 0.25 µL of specific 20 × TaqMan Gene Expression Assay (Life Technologies), giving 5 µL of final reaction volume. Cycling parameters were: initial hold at 50 °C for 2 min and denaturation at 95 °C for 10 min, followed by 45 cycles consisting of denaturation at 95 °C for 15 s and annealing/extension at 60 °C for 1 min. After each extension phase, the fluorescence values were acquired. Duplicate samples were used for measurement and samples with a standard deviation of duplicates > 1.0 cycle threshold (Ct) were re-analyzed. The real time PCR procedure was maintained according to MIQE (Minimum information for publication of quantitative real-time PCR experiments) guidelines. The software REST 2009 (Qiagen, Hilden, Germany) served to compare relative transcript levels of genes in the cell line.

ABCB2 = ABCB2 mRNA expression (real-time PCR); format: cell-based, human; settings: A2780/DOX, 10 µM combined with doxorubicin at IC25, 48 h
Method: as §1, §2, §3

ABCD1 = ABCD1 mRNA expression (real-time PCR); format: cell-based, human; settings: A2780/DOX
Method: as §1, §2, §3

ABCD3 = ABCD3 mRNA expression (real-time PCR); format: cell-based, human; settings: A2780/DOX
Method: as §1, §2, §3

ABCF3 = ABCF3 mRNA expression (real-time PCR); format: cell-based, human; settings: A2780/DOX
Method: as §1, with “After 24 h, the dishes were washed with PBS and new DMEM medium supplemented with doxorubicin (at concentration equal to IC25) and samples (10 µM) were added.” left out
as §2, §3

[2] = HepG2, read-out: CAA, concentration necessary to halve the fluorescence response (IC50)
[3] = RAW264.7, read-out: TNF-α, concentration necessary to halve the release (IC50)
[4] = compound 12.5 µM, untreated LPS control 2954 ± 92
[5] = compound 25 µM, untreated LPS control 2954 ± 92
[6] = compound 50 µM, untreated LPS control 2954 ± 92
[7] = 10 µM combined with doxorubicin at IC25, 48 h
[8] = 10 µM, 48 h, without doxorubicin
[9] = HepG2, DCFH-DA/AAPH, read-out: CAA, concentration necessary to halve the fluorescence response (IC50)
[10] = RAW264.7, RAW 264.7, LPS 1 µg/mL, 24 h
[11] = RAW264.7, RAW 264.7, 24 h pre-cultivation, then LPS 2 h, read-out: TNF-α, concentration necessary to halve the release (IC50)

Compound	IC50 (HepG2 cells; [2])	IC50 ([1]; RAW264.7, 24 h)	IC50 (TNF-α; [3])	TNF-α (pg/mL) (TNF-α; [4])	TNF-α (pg/mL) (TNF-α; [5])	TNF-α (pg/mL) (TNF-α; [6])	ABCA2 Expression Difference (ABCA2)	ABCB2 Expression Difference (ABCB2)	ABCD1 Expression Difference (ABCD1; [7])	ABCD1 Expression Difference (ABCD1; [8])	ABCD3 Expression Difference (ABCD3; [7])	ABCF3 Expression Difference (ABCF3; [7])	ABCF3 Expression Difference (ABCF3; [8])	ABCD3 Expression Difference (ABCD3; [8])	IC50 (HepG2 cells; [9])	IC50 [1, 10]	IC50 (TNF-α; [11])	further results
COc1cc([C@H]2Oc3cc(-c4oc5cc(O)cc(O)c5c(=O)c4O)ccc3O[C@@H]2CO)ccc1O [Dehydrosilybin A, 2,3-dehydrosilybin A]	11.8 ± 0.7 µM	23.2 ± 1.4 µM	20.7 ± 0.4 µM	2338 ± 63 ^ab pg/mL	777 ± 28 ^a pg/mL	0 ± 0 ^a pg/mL	1.105	5.557	1.435	1.063	1.043	1.096	1.602	–	–	–	–	decrease of release of TNF-α (TNF-α; compound 25 µM, from 2954 pg/mL to 777 pg/mL): ~4 times; TNF-α (TNF-α; compound 25 µM, untreated LPS control 2954 ± 92, listed as dehydrosilybin A): 777 pg/mL; TNF-α (pg/mL) (TNF-α; compound 50 µM, untreated LPS control 2954 ± 92, listed as dehydrosilybin A): under the detection limit of the ELISA assay
COc1cc(C2Oc3cc(-c4oc5cc(O)cc(O)c5c(=O)c4O)ccc3OC2CO)ccc1O (stereo not shown) [Dehydrosilybin AB, 2,3-dehydrosilybin]	9.2 ± 0.5 µM	19.1 ± 0.2 µM	26.7 ± 0.1 µM	2617 ± 118 ^b pg/mL	2364 ± 108 ^c pg/mL	0 ± 0 ^a pg/mL	1.046	5.145	1.412	–	1.288	1.326	1.706	1.545	–	–	–	TNF-α (pg/mL) (TNF-α; compound 50 µM, untreated LPS control 2954 ± 92, listed as dehydrosilybin AB): under the detection limit of the ELISA assay
COc1cc([C@@H]2Oc3cc(-c4oc5cc(O)cc(O)c5c(=O)c4O)ccc3O[C@H]2CO)ccc1O [Dehydrosilybin B, 2,3-dehydrosilybin B]	12.1 ± 0.4 µM	31.3 ± 2.4 µM	44.2 ± 0.3 µM	2528 ± 171 ^b pg/mL	2774 ± 84 ^d pg/mL	982 ± 25 ^c pg/mL	1.078	9.286	1.784	–	1.347	1.963	–	–	–	–	–	immunomodulation effect lower compared to its diastereomeric mixture ([1]; NO production, vs dehydrosilybin AB): approximately 40%
COc1cc([C@H]2Oc3cc([C@H]4Oc5cc(O)cc(O)c5C(=O)[C@@H]4O)ccc3O[C@@H]2CO)ccc1O [Silybin A, silybin A]	–	–	–	2092 ± 48 ^a pg/mL	1476 ± 39 ^b pg/mL	415 ± 4 ^b pg/mL	1.239	17.975	–	1.187	1.637	1.570	–	–	9.8 ± 0.4 µM	26.7 ± 1.6 µM	29.9 ± 1.35 µM	–
COc1cc(C2Oc3cc([C@H]4Oc5cc(O)cc(O)c5C(=O)[C@@H]4O)ccc3OC2CO)ccc1O (stereo partly shown) [Silybin AB, silybin]	–	–	–	2497 ± 37 ^b pg/mL	2425 ± 145 ^c pg/mL	1177 ± 75 ^d pg/mL	1.207	18.114	2.868	–	1.560	1.554	1.440	2.181	10.7 ± 0.9 µM	23.6 ± 1.2 µM	38.7 µM	–
COc1cc([C@@H]2Oc3cc([C@H]4Oc5cc(O)cc(O)c5C(=O)[C@@H]4O)ccc3O[C@H]2CO)ccc1O [Silybin B, silybin B]	–	–	–	2441 ± 68 ^b pg/mL	2375 ± 64 ^c pg/mL	1792 ± 63 ^e pg/mL	0.903	15.698	–	0.348	–	1.335	0.328	0.337	8.9 ± 0.3 µM	26 ± 3 µM	53.3 ± 0.7 µM	ABCA2 Treated vs. Untreated (ABCA2): DOWN; ABCD1 Treated vs. Untreated (ABCD1; [8]): DOWN; ABCD3 Treated vs. Untreated (ABCD3; [8]): DOWN; ABCF3 Treated vs. Untreated (ABCF3; [8]): DOWN
